Patent US11174251B2, “Compositions and methods for inhibition of the JAK pathway” (Rigel Pharmaceuticals, Inc., priority 2010, dated 2021)
Where a name gives a salt, the structure may show the parent alone.

These molecules were tested against T1, JAK3 (Homo sapiens, UniProt P52333) (assay: Assay for CD23 expression on Ramos B-cells stimulated by IL-4 (Table IV: ability to inhibit JAK3 activity)). Details: tested under conditions described in Example 3 (so in the source).
T1 construct: The Ramos B-cell line was acquired from ATCC (ATCC Catalog No. CRL-1596); host or cells: Ramos B-cell line (human)
T1 sequence (P52333 1-1124): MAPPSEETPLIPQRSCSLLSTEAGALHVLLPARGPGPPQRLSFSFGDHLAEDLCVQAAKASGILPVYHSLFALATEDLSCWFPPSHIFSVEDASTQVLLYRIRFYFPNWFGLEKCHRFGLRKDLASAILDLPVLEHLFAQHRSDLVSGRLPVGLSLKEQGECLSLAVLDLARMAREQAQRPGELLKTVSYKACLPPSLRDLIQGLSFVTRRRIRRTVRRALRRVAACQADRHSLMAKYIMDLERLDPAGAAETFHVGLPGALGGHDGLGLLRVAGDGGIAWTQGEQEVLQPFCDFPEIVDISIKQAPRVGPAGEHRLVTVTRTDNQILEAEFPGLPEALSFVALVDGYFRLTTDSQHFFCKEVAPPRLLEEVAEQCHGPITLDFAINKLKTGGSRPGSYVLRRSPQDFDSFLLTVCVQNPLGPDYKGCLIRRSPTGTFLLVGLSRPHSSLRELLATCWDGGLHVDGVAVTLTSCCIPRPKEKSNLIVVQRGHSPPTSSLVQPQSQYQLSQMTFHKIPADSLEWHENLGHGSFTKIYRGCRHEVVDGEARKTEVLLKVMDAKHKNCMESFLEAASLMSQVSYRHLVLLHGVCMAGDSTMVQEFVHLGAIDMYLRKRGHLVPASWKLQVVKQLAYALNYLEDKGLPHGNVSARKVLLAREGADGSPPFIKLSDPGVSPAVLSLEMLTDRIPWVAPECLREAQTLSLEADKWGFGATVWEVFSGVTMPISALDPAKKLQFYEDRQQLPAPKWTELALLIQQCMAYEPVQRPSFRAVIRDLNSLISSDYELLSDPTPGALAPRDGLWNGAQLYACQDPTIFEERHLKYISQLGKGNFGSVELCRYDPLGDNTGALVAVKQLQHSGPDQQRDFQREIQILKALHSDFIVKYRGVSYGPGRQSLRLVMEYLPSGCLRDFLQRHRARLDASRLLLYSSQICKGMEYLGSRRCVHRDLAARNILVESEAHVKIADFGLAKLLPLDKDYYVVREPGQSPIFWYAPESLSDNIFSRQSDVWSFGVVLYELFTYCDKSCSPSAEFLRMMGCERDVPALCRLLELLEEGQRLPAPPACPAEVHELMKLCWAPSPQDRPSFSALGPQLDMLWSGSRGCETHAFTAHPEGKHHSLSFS
Assay type: cell-based
Method in brief: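 Human Ramos B cells in RPMI with 5% serum, pre-incubated 1 h at 37 °C with compound or DMSO, then stimulated with IL-4 (final 50 units/mL) for 20–24 h. Surface CD23 upregulation measured by FACS staining as readout of JAK1/JAK3–Stat-6 signalling.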

Row | SMILES | IC50 [µM]
1 | Cc1cnc(Nc2cc(C)c(F)c(C(=O)O)c2)nc1Nc1ccc2oc(=O)[nH]c2c1 [Compound I-155, N2-(3-carboxy-4-fluoro-5-methyl)phenyl-5-methyl-N4-(2-oxo-2,3-dihydro-1,3-benzoxazol-5-yl)-2,4-pyrimidinediamine] | 0.5 to 5
2 | COc1cc(Nc2ncc(F)c(Nc3ccc4oc(=O)[nH]c4c3)n2)ccc1C(=O)NC1CCC1 [Compound I-164, N-cyclobutyl-4-(5-fluoro-4-(2-oxo-2,3-dihydrobenzo[d]oxazol-5-ylamino)pyrimidin-2-ylamino)-2-methoxybenzamide formate salt] | < 0.5
3 | O=C(NC1CC1)c1ccc(Nc2ncc(F)c(Nc3ccc4oc(=O)[nH]c4c3)n2)cc1C(F)(F)F [Compound I-165, N-cyclopropyl-4-(5-fluoro-4-(2-oxo-2,3-dihydrobenzo[d]oxazol-5-ylamino)pyrimidin-2-ylamino)-2-(trifluoromethyl)benzamide formate salt] | < 0.5
4 | O=C(Nc1ccccc1)c1ccc(Nc2ncc(F)c(Nc3ccc4oc(=O)[nH]c4c3)n2)cc1C(F)(F)F [Compound I-166, 4-(5-fluoro-4-(2-oxo-2,3-dihydrobenzo[d]oxazol-5-ylamino)pyrimidin-2-ylamino)-N-phenyl-2-(trifluoromethyl)benzamide formate salt] | < 0.5
5 | Cc1ccc(Nc2ncc(F)c(Nc3ccc4oc(=O)[nH]c4c3)n2)cc1S(C)(=O)=O [Compound I-167, 5-(2-(4-methyl-3-(methylsulfonyl)phenylamino)-5-fluoropyrimidin-4-ylamino)benzo[d]oxazol-2(3H)-one trifluoroacetate salt] | < 0.5
6 | CS(=O)(=O)c1cc(Nc2ncc(F)c(Nc3ccc4oc(=O)[nH]c4c3)n2)ccc1F [Compound I-168, 5-(2-(4-fluoro-3-(methylsulfonyl)phenylamino)-5-fluoropyrimidin-4-ylamino)benzo[d]oxazol-2(3H)-one trifluoroacetate salt] | < 0.5
7 | O=c1[nH]c2cc(Nc3nc(Nc4cc(F)cc(N5CCOCC5)c4)ncc3F)ccc2o1 [Compound I-169, 5-(2-(3-fluoro-5-morpholinophenylamino)-5-fluoropyrimidin-4-ylamino)benzo[d]oxazol-2(3H)-one ditrifluoroacetate salt] | < 0.5
8 | CN1CCN(c2cc(F)cc(Nc3ncc(F)c(Nc4ccc5oc(=O)[nH]c5c4)n3)c2)CC1 [Compound I-170, 5-(2-(3-fluoro-5-(4-methylpiperazin-1-yl)phenylamino)-5-fluoropyrimidin-4-ylamino)benzo[d]oxazol-2(3H)-one ditrifluoroacetate salt] | < 0.5
9 | Cc1cc(Nc2nc(Nc3cccc(S(N)(=O)=O)c3)ncc2F)cc2[nH]c(=O)oc12 [Compound I-171, 3-(5-fluoro-4-(7-methyl-2-oxo-2,3-dihydrobenzo[d]oxazol-5-ylamino)pyrimidin-2-ylamino)benzenesulfonamide trifluoroacetate salt] | < 0.5
10 | Cc1cc(Nc2nc(Nc3cccc(S(C)(=O)=O)c3)ncc2F)cc2[nH]c(=O)oc12 [Compound I-172, 5-(2-(3-(methylsulfonyl)phenylamino)-5-fluoropyrimidin-4-ylamino)-7-methylbenzo[d]oxazol-2(3H)-one trifluoroacetate salt] | < 0.5
11 | Cc1cc(Nc2nc(Nc3ccc(F)c(S(C)(=O)=O)c3)ncc2F)cc2[nH]c(=O)oc12 [Compound I-173, 5-(2-(4-fluoro-3-(methylsulfonyl)phenylamino)-5-fluoropyrimidin-4-ylamino)-7-methylbenzo[d]oxazol-2(3H)-one trifluoroacetate salt] | < 0.5
12 | NS(=O)(=O)c1cccc(Nc2ncc(F)c(Nc3cc(F)c4oc(=O)[nH]c4c3)n2)c1 [Compound I-174, 3-(5-fluoro-4-(7-fluoro-2-oxo-2,3-dihydrobenzo[d]oxazol-5-ylamino)pyrimidin-2-ylamino)benzenesulfonamide trifluoroacetate salt] | < 0.5
13 | [2H]C([2H])([2H])Oc1cc(C)cc(Nc2ncc(F)c(Nc3ccc4oc(=O)[nH]c4c3)n2)c1 [Compound I-175, 5-(5-fluoro-2-(3-d3-methoxy-5-methylphenylamino)pyrimidin-4-ylamino)benzo[d]oxazol-2(3H)-one trifluoroacetate salt] | < 0.5
14 | COc1cc(Nc2ncc(F)c(Nc3cc(C)c4oc(=O)[nH]c4c3)n2)cc(C(F)(F)F)c1 [Compound I-176, 5-(2-(3-(trifluoromethyl)-5-methoxyphenylamino)-5-fluoropyrimidin-4-ylamino)-7-methylbenzo[d]oxazol-2(3H)-one trifluoroacetate salt] | > 10
15 | COc1cc(C)cc(Nc2ncc(F)c(Nc3cc(C)c4oc(=O)[nH]c4c3)n2)c1 [Compound I-177, 5-(2-(3-methoxy-5-methylphenylamino)-5-fluoropyrimidin-4-ylamino)-7-methylbenzo[d]oxazol-2(3H)-one trifluoroacetate salt] | > 10
16 | COc1ccc(Nc2ncc(F)c(Nc3cc(C)c4oc(=O)[nH]c4c3)n2)cc1C [Compound I-178, 5-(2-(4-methoxy-3-methylphenylamino)-5-fluoropyrimidin-4-ylamino)-7-methylbenzo[d]oxazol-2(3H)-one trifluoroacetate salt] | < 0.5
17 | COc1cc(C)cc(Nc2ncc(F)c(Nc3cc(F)c4oc(=O)[nH]c4c3)n2)c1 [Compound I-179, 5-(2-(3-methoxy-5-methylphenylamino)-5-fluoropyrimidin-4-ylamino)-7-fluorobenzo[d]oxazol-2(3H)-one trifluoroacetate salt] | > 10

More lines, now with the values ahead:

Row | IC50 [µM] | SMILES
18 | < 0.5 | COC(=O)c1cc(Nc2ncc(C)c(Nc3ccc4oc(=O)[nH]c4c3)n2)cc(C)c1F [Compound I-153, N2-(4-fluoro-3-methoxycarbonyl-5-methyl)phenyl-5-methyl-N4-(2-oxo-2,3-dihydro-1,3-benzoxazol-5-yl)-2,4-pyrimidinediamine]
19 | < 0.5 | Cc1cnc(Nc2cc(C)c(F)c(CO)c2)nc1Nc1ccc2oc(=O)[nH]c2c1 [Compound I-154, N2-(4-fluoro-3-hydroxymethyl-5-methyl)phenyl-5-methyl-N4-(2-oxo-2,3-dihydro-1,3-benzoxazol-5-yl)-2,4-pyrimidinediamine]
20 | < 0.5 | CC(=O)c1ccc(Nc2ncc(F)c(Nc3ccc4oc(=O)[nH]c4c3)n2)cc1 [Compound I-157, 5-(2-(4-acetylphenylamino)-5-fluoropyrimidin-4-ylamino)benzo[d]oxazol-2(3H)-one formate salt]
21 | < 0.5 | CC(NC1CC1)c1ccc(Nc2ncc(F)c(Nc3ccc4oc(=O)[nH]c4c3)n2)cc1 (centres unmarked) [Compound I-158, 5-(2-(4-(1-(cyclopropylamino)ethyl)phenylamino)-5-fluoropyrimidin-4-ylamino)benzo[d]oxazol-2(3H)-one formate salt]
22 | < 0.5 | O=C(NC1CCC1)c1ccc(Nc2ncc(F)c(Nc3ccc4oc(=O)[nH]c4c3)n2)cc1 [Compound I-159, N-cyclobutyl-4-(5-fluoro-4-(2-oxo-2,3-dihydrobenzo[d]oxazol-5-ylamino)pyrimidin-2-ylamino)benzamide formate salt]
23 | < 0.5 | CCCNC(=O)c1ccc(Nc2ncc(F)c(Nc3ccc4oc(=O)[nH]c4c3)n2)cc1 [Compound I-160, 4-(5-fluoro-4-(2-oxo-2,3-dihydrobenzo[d]oxazol-5-ylamino)pyrimidin-2-ylamino)-N-propylbenzamide formate salt]
24 | < 0.5 | O=C(NC1CC1)c1ccc(Nc2ncc(F)c(Nc3ccc4oc(=O)[nH]c4c3)n2)cc1 [Compound I-161, N-cyclopropyl-4-(5-fluoro-4-(2-oxo-2,3-dihydrobenzo[d]oxazol-5-ylamino)pyrimidin-2-ylamino)benzamide formate salt]
25 | < 0.5 | CCNC(=O)c1ccc(Nc2ncc(F)c(Nc3ccc4oc(=O)[nH]c4c3)n2)cc1 [Compound I-162, N-ethyl-4-(5-fluoro-4-(2-oxo-2,3-dihydrobenzo[d]oxazol-5-ylamino)pyrimidin-2-ylamino)benzamide formate salt]
26 | < 0.5 | CC(C)NC(=O)c1ccc(Nc2ncc(F)c(Nc3ccc4oc(=O)[nH]c4c3)n2)cc1 [Compound I-163, 4-(5-fluoro-4-(2-oxo-2,3-dihydrobenzo[d]oxazol-5-ylamino)pyrimidin-2-ylamino)-N-isopropylbenzamide formate salt]
